Measurements reported in patent publication US20240425492A1, “POLYMORPHS AS ERBB INHIBITORS” (Black Diamond Therapeutics, Inc., priority 2021, published 2024).
Converted amounts (≈) assume the structure as drawn.

Key:
[1] = Hygroscopicity by DVS at 25° C.; format: physicochemical; settings: for Desorp. (%) / Sorp. (%): DVS 25° C.
Description: Dynamic Vapor Sorption (DVS): DVS analysis was performed using Intrinsic. Analysis was performed using parameters as set forth below.
The hygroscopicity for Form C and Form F was examined. See, e.g., Table E.

[2] = Bulk stability under accelerated storage conditions (XRPD and HPLC); settings: for Bulk (XRPD) / Purity, Bulk (HPLC): Solid state
Description: Solids obtained after bulk stability study were characterized by XRPD and HPLC.

[3] = Solubility study in aqueous media at 37° C. (HPLC of supernatants, pH); settings: for solubility / solubility at 2 h / solubility at 24 h: 37 °C, thermodynamic from solid
Description: 2.01 mg of the free base Form C (equal to 2 mg free base after correction for water content) was weighed into 2 mL vial. 2.09 mg of the free base Form F (equal to 2 mg free base after correction for water content) was weighed into a 2 mL vial. I mL of aqueous media was added, respectively. These suspensions were stirred at 37° C. at a rate of 400 rpm. These suspensions were taken out after 2 h and 24 h, and then centrifuged at 14,000 rpm for 5 minutes. The supernatants were analyzed by HPLC. The pH of the supernatants were tested.

[4] = 25° C./92.5% RH in an open vial, 2 weeks
[5] = 25° C./92.5% RH in an open vial, 4 weeks
[6] = 40° C./75% RH in an open vial, 2 weeks
[7] = 40° C./75% RH in an open vial, 4 week
[8] = 60° C., tight container, 2 weeks
[9] = 60° C., tight container, 4 weeks
[10] = SGF, pH 2, simulated gastric fluid
[11] = pH 1.0 HCl solution (0.1N), pH 1, simulated gastric fluid
[12] = pH 4.5 acetate buffer (50 mM), pH 4.5, aqueous buffer
[13] = pH 6.8 phosphate buffer (50 mM), pH 6.8, aqueous buffer

- DVS water uptake at 90% RH ([1]; 25° C., dm/dt = 0.002%): 1.6% water uptake at 90% RH
- DVS water uptake at 95% RH ([1]; 25° C., dm/dt = 0.002%): 2.3% water uptake at 95% RH
- Desorp. (%) ([1]; Relative Humidity 0%, first Desorp.): 0.2%
- Sorp. (%) ([1]; Relative Humidity 0%, first Sorp.): 0.2%
- Desorp. (%) ([1]; Relative Humidity 0%, second Desorp.): 0.0%
- Sorp. (%) ([1]; Relative Humidity 0%, second Sorp.): 0.0%
- Desorp. (%) ([1]; Relative Humidity 10%, first Desorp.): 0.3%
- Sorp. (%) ([1]; Relative Humidity 10%, first Sorp.): 0.2%
- Desorp. (%) ([1]; Relative Humidity 10%, second Desorp.): 0.1%
- Sorp. (%) ([1]; Relative Humidity 10%, second Sorp.): 0.1%
- Desorp. (%) ([1]; Relative Humidity 20%, first Desorp.): 0.4%
- Sorp. (%) ([1]; Relative Humidity 20%, first Sorp.): 0.3%
- Desorp. (%) ([1]; Relative Humidity 20%, second Desorp.): 0.2%
- Sorp. (%) ([1]; Relative Humidity 20%, second Sorp.): 0.2%
- Desorp. (%) ([1]; Relative Humidity 30%, first Desorp.): 0.5%
- Sorp. (%) ([1]; Relative Humidity 30%, first Sorp.): 0.4%
- Desorp. (%) ([1]; Relative Humidity 30%, second Desorp.): 0.3%
- Sorp. (%) ([1]; Relative Humidity 30%, second Sorp.): 0.3%
- Desorp. (%) ([1]; Relative Humidity 40%, first Desorp.): 0.5%
- Sorp. (%) ([1]; Relative Humidity 40%, first Sorp.): 0.4%
- Desorp. (%) ([1]; Relative Humidity 40%, second Desorp.): 0.4%
- Sorp. (%) ([1]; Relative Humidity 40%, second Sorp.): 0.3%
- Sorp. (%) ([1]; Relative Humidity 50%, first Sorp.): 0.5%
- Desorp. (%) ([1]; Relative Humidity 50%, second Desorp.): 0.6%
- Sorp. (%) ([1]; Relative Humidity 60%, first Sorp.): 0.6%
- Desorp. (%) ([1]; Relative Humidity 60%, second Desorp.): 1.1%
- Sorp. (%) ([1]; Relative Humidity 70%, first Sorp.): 0.8%
- Desorp. (%) ([1]; Relative Humidity 70%, second Desorp.): 1.4%
- Sorp. (%) ([1]; Relative Humidity 80%, first Sorp.): 1.2%
- Desorp. (%) ([1]; Relative Humidity 80%, second Desorp.): 1.7%
- Sorp. (%) ([1]; Relative Humidity 90%, first Sorp.): 1.8%
- Desorp. (%) ([1]; Relative Humidity 90%, second Desorp.): 2.2%
- Sorp. (%) ([1]; Relative Humidity 95%, first Sorp.): 2.5%
- Desorp. (%) ([1]; Relative Humidity 95%, second Desorp.): 2.5%
- XRPD after DVS test ([1]; DVS at 25° C.): No form change
- HPLC area Purity ([2]; 1 Month, 5° C.): 98.2%
- Water content ([2]; 1 Month, 5° C.): 0.5%
- impurity RRT0.967 ([2]; 1 Month, 5° C.): 0.07%
- impurity RRT0.971 ([2]; 1 Month, 5° C.): 0.08%
- impurity RRT1.20 ([2]; 1 Month, 5° C.): 0.06%
- impurity RRT1.24 ([2]; 1 Month, 5° C.): 1.4%
- impurity RRT1.26 ([2]; 1 Month, 5° C.): 0.13%
- impurity RRT1.28 ([2]; 1 Month, 5° C.): 0.11%
- HPLC area Purity ([2]; 1 Month, 25° C./60% RH): 98.2
- Water content ([2]; 1 Month, 25° C./60% RH): 0.4%
- impurity RRT0.967 ([2]; 1 Month, 25° C./60% RH): 0.07%
- impurity RRT0.971 ([2]; 1 Month, 25° C./60% RH): 0.08%
- impurity RRT1.20 ([2]; 1 Month, 25° C./60% RH): 0.06%
- impurity RRT1.24 ([2]; 1 Month, 25° C./60% RH): 1.4%
- impurity RRT1.26 ([2]; 1 Month, 25° C./60% RH): 0.13%
- impurity RRT1.28 ([2]; 1 Month, 25° C./60% RH): 0.11%
- HPLC area Purity ([2]; 1 Month, 40° C./75% RH): 98.2%
- Water content ([2]; 1 Month, 40° C./75% RH): 0.7%
- impurity RRT0.967 ([2]; 1 Month, 40° C./75% RH): 0.08%
- impurity RRT0.971 ([2]; 1 Month, 40° C./75% RH): 0.08%
- impurity RRT1.20 ([2]; 1 Month, 40° C./75% RH): 0,07%
- impurity RRT1.24 ([2]; 1 Month, 40° C./75% RH): 1.4%
- impurity RRT1.26 ([2]; 1 Month, 40° C./75% RH): 0.13%
- impurity RRT1.28 ([2]; 1 Month, 40° C./75% RH): 0.11%
- HPLC area Purity ([2]; Initial): 98.1
- Water content ([2]; Initial): 0.4%
- impurity RRT0.967 ([2]; Initial): 0.09%
- impurity RRT0.971 ([2]; Initial): 0.06%
- impurity RRT1.20 ([2]; Initial): 0.06%
- impurity RRT1.24 ([2]; Initial): 1.4%
- impurity RRT1.26 ([2]; Initial): 0.13%
- impurity RRT1.28 ([2]; Initial): 0.12%
- impurity RrRT1.12 ([2]; Initial): 0.05%
- polymorph ([2]; Initial): Form C
- Bulk (XRPD) [2, 4]: No form change
- Purity, Bulk (HPLC) [2, 4]: 96.6%
- Bulk (XRPD) [2, 5]: No form change
- Purity, Bulk (HPLC) [2, 5]: 96.4%
- Bulk (XRPD) [2, 6]: No form change
- Purity, Bulk (HPLC) [2, 6]: 95.5%
- Bulk (XRPD) [2, 7]: No form change
- Purity, Bulk (HPLC) [2, 7]: 94.6%
- Bulk (XRPD) [2, 8]: No form change
- Purity, Bulk (HPLC) [2, 8]: 95.5%
- Bulk (XRPD) [2, 9]: No form change
- Purity, Bulk (HPLC) [2, 9]: 93.3%
- form change after bulk stability study (XRPD) ([2]; three accelerated conditions, two weeks and four weeks): do not change forms
- stability in FaSSIF-v1 ([3]; 37° C., FaSSIF-v1): degraded
- stability in FeSSIF-v1 ([3]; 37° C., FeSSIF-v1): degraded
- 2 h Solubility ([3]; FaSSIF-v1, pH 6.5, 37° C.): Degradation
- 24 h Solubility ([3]; FaSSIF-v1, pH 6.5, 37° C.): Degradation
- 2 h Solubility ([3]; FeSSIF-v1, pH 5.0, 37° C.): Degradation
- 24 h Solubility ([3]; FeSSIF-v1, pH 5.0, 37° C.): Degradation
- solubility [3, 10]: > 2000 µg/mL
- solubility at 2 h [3, 10]: > 2000 µg/mL
- solubility at 24 h [3, 10]: > 2000 µg/mL
- 24 h (pH) of supernatant ([3]; SGF, pH 2.0, 37° C.): pH 3.7
- 24 h (pH) of supernatant ([3]; Water, 37° C.): pH 7.4
- 24 h (pH) of supernatant ([3]; pH 1.0 (0.1N HCl), 37° C.): pH 1.0
- solubility at 2 h [3, 11]: > 2000 µg/mL
- solubility at 24 h [3, 11]: > 2000 µg/mL
- solubility ([3]; pH 1.0 HCl solution, pH 1, simulated gastric fluid): > 2000 µg/mL
- 24 h (pH) of supernatant ([3]; pH 4.5 (50 mM) acetate buffer, 37° C.): pH 4.5
- solubility [3, 12]: > 2000 µg/mL
- solubility at 2 h [3, 12]: 2000 µg/mL (≈ 3560 µM)
- solubility at 24 h [3, 12]: > 2000 µg/mL
- 24 h (pH) of supernatant ([3]; pH 6.8 (50 mM) phosphate buffer, 37° C.): pH 6.7
- solubility [3, 13]: ~20 µg/mL (≈ 35.6 µM)
- solubility at 2 h [3, 13]: 20.4 µg/mL (≈ 36.4 µM)
- solubility at 24 h [3, 13]: 16.5 µg/mL (≈ 29.4 µM)
- solubility ([3]; pure water, water): < 10 µg/mL
- solubility at 2 h ([3]; water): 1.6 µg/mL (≈ 2.85 µM)
- solubility at 24 h ([3]; water): 2 µg/mL (≈ 3.56 µM)
SMILES: CN1C[C@H]2C[C@@]2(C#Cc2cc3ncnc(Nc4cccc(Cl)c4F)c3cc2NC(=O)/C=C/CN2CCOCC2)C1 [Form C]
